# Where two headings read alike, the source gives them in different places.
# Tests used:
# active mouse DPP1 enzyme = active mouse DPP1 enzyme (Mus musculus (Mouse), UniProt P97821); assay: Mouse DPP1 Enzyme IC50 Assay; type: biochemical
# Experimental: Test articles were applied to active mouse DPP1 enzyme (R&D Systems; Minneapolis, MN) in Assay Buffer (50 mM MES pH 5.5, 50 mM NaCl, 5 mM DTT) in a total reaction volume of 125 μL. 25 μL of compound in Assay Buffer plus 5% DMSO was first added to 50 μL of active mouse DPP1 enzyme at a concentration of 62.5 pg/μL and allowed to pre-incubate for 10 minutes at 37° C. after which 50 μL of 1000 μM H-Gly-Arg-AMC substrate (Bachem; St. Torrance, CA) was added, giving final substrate concentration of 400 μM and a final DMSO concentration of 1%. Substrate cleavage was measured for 90 minutes at 37° C., with fluorescence at Excitation/Emission 350/450 nm measured every 5 minutes. DPP1 concentration was interpolated based on its activity relative to a standard curve of recombinant active mouse DPP1 enzyme. IC50 values for each compound were calculated via the XLFit (IDBS Version 5.3.1.3) Add-On to Microsoft Excel using the four parameter fit equation y=(A+((B−A)/(1+((C/x)^D)))), which appears as equation number 205 (4 Parameter Logistic Model or Sigmoidal Dose-Response Model) in XLFit. Default constraints were used for each Parameter. IC50 was defined as the compound concentration at which 50% of enzyme activity was inhibited when compared to the no-compound control.
# [1] = target: Recombinant human DPP1 enzyme (Homo sapiens (Human), UniProt P53634); assay: Human DPP1 Enzyme IC50 Assay; type: biochemical
# Experimental: Recombinant human DPP1 enzyme (R&D Systems; Minneapolis, MN) was first proteolytically processed into its mature form using recombinant human cathepsin L (R&D Systems) in a buffer consisting of 20 mM citric acid pH 4.5, 150 mM NaCl, 1 mM EDTA and 10 mM DTT. Test articles were applied to activated human DPP1 enzyme in Assay Buffer (25 mM MES pH 6.0, 50 mM NaCl, 5 mM DTT) in a total reaction volume of 125 μL. 25 μL of compound in Assay Buffer plus 5% DMSO was first added to 50 μL of activated human DPP1 enzyme at a concentration of 1 ng/μL and allowed to pre-incubate for 10 minutes at 37° C. after which 50 μL of 1000 μM H-Gly-Arg-AMC substrate (Bachem; St. Torrance, CA) was added, giving final substrate concentration of 400 μM and a final DMSO concentration of 1%. Substrate cleavage was measured for 90 minutes at 37° C., with fluorescence at Excitation/Emission 350/450 nm measured every 5 minutes. DPP1 concentration was interpolated based on its activity relative to a standard curve of activated human recombinant DPP1 enzyme. IC50 values for each compound were calculated via the XLFit (IDBS Version 5.3.1.3) Add-On to Microsoft Excel using the four parameter fit equation y={A+[(B−A)]/[1+((C/x)^D)]}, which appears as equation number 205 (4 Parameter Logistic Model or Sigmoidal Dose-Response Model) in XLFit. Default constraints were used for each Parameter.
# DPP1 in HL-60 cells = DPP1 in HL-60 cells (Homo sapiens (Human), UniProt P53634); assay: DPP1 Cell IC50 Assay (HL-60 cells, H-Gly-Phe-AFC substrate); type: cell-based
# Experimental: HL-60 cells (ATCC; Manassas, VA) were maintained in RPMI-1640 supplemented with 20% heat-inactivated FBS and 1× Antibiotic Antimycotic (Cytiva; Marlborough, MA). Media was changed every three to four days and cells were not allowed to exceed 1×10^6 cells per mL. Prior to assay, cells were collected by centrifugation at 500 rcf for 3 minutes, resuspended in PBS and counted. Cells were diluted in PBS to a concentration of 5×10^5 live cells per mL and transferred to black 96-well plates for assay, 60 μL per well. Test articles were diluted in PBS plus 0.5% DMSO, and 20 μL was added to each assay well. Compound was allowed to pre-incubate with cells with gentle shaking at 100 rpm for 60 minutes at 37° C. in a cell culture incubator maintained at 5% CO2, after which 20 μL of 500 μM H-Gly-Phe-AFC substrate (MP Biomedicals; Solon, OH) was added to each well. Plates were returned to the incubator with shaking at 100 rpm for 30 minutes, after which fluorescence was measured at Excitation/Emission 400/505 nm. % Inhibition was calculated from RFU values compared to control cell wells that received only PBS plus 0.5% DMSO. IC50 values for each compound were calculated via the XLFit (IDBS Version 5.3.1.3) Add-On to Microsoft Excel using the four parameter fit equation y=(A+((B−A)/(1+((C/x)^D)))), which appears as equation number 205 (4 Parameter Logistic Model or Sigmoidal Dose-Response Model) in XLFit.
# [2] = mouse DPP1 enzyme, Table 16, read-out: IC50, nM, Mouse
# [3] = human DPP1 enzyme, Table 16, read-out: IC50, nM, Human
# [4] = H-Gly-Phe-AFC substrate, Table 15, read-out: Cell IC50
# [5] = figure legends FIG. 12 and 13, read-out: IC50, in vitro inhibition of mouse DPP1
# [6] = mouse DPP1 enzyme, H-Gly-Arg-AMC substrate 400 μM, Table 13, read-out: IC50
# [7] = figure legends FIG. 14 and 15, read-out: IC50, in vitro inhibition of human DPP1
# Recombinant human DPP1 enzyme, sequence (P53634 25-134): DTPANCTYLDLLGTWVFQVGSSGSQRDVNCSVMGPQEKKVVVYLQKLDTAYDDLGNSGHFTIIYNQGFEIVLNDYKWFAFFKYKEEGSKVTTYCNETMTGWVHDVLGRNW
# Recombinant human DPP1 enzyme, sequence (P53634 231-394): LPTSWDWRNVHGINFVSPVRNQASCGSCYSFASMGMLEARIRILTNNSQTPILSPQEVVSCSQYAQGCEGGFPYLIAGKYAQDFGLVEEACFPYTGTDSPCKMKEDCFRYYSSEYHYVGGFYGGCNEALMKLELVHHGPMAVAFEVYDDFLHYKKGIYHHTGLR
# Recombinant human DPP1 enzyme, sequence (P53634 395-463): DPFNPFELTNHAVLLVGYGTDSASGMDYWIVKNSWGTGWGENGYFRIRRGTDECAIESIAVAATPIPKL
# DPP1 in HL-60 cells, sequence (P53634 25-134): as the sequence (P53634 25-134) above
# DPP1 in HL-60 cells, sequence (P53634 231-394): as the sequence (P53634 231-394) above
# DPP1 in HL-60 cells, sequence (P53634 395-463): as the sequence (P53634 395-463) above
# active mouse DPP1 enzyme, sequence (P97821 25-134): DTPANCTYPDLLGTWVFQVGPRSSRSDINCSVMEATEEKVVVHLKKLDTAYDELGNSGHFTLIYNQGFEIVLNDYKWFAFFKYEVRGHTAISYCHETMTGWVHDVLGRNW
# active mouse DPP1 enzyme, sequence (P97821 231-393): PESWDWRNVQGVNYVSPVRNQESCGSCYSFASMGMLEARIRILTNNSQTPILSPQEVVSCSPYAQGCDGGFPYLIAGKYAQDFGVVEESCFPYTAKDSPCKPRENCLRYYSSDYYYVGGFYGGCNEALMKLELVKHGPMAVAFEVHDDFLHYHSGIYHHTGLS
# active mouse DPP1 enzyme, sequence (P97821 394-462): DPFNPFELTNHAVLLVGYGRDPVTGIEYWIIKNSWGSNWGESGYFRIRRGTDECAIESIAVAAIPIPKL
IC50 (active mouse DPP1 enzyme; [2]) [nM],"IC50 [1, 3] [nM]",Structure (SMILES),also measured
92.4,140,N#Cc1ccc(-c2ccc(C[C@@H](C#N)NC(=O)[C@@H]3C[C@H]4C[C@H]4N3)cc2)cc1,–
> 5000,> 5000,Cn1c(=O)oc2ccc(-c3ccc(C[C@@H](C#N)NC(=O)C4CNCCN4)cc3)cc21 (stereo partly shown),–
> 5000,> 5000,Cn1c(=O)oc2ccc(-c3ccc(CC(C#N)NC(=O)[C@H]4CCNC[C@@H]4N)cc3)cc21 (stereo partly shown),–
2430,1310,Cn1c(=O)oc2ccc(-c3ccc(CC(C#N)NC(=O)[C@H]4CCNC[C@H]4N)cc3)cc21 (stereo partly shown),–
3290,2540,Cn1c(=O)oc2ccc(-c3ccc(C[C@@H](C#N)NC(=O)CC4(N)CCOC4)cc3)cc21 (stereo partly shown),–
3160,2180,Cn1c(=O)oc2ccc(-c3ccc(C[C@@H](C#N)NC(=O)C4(C)CNCCO4)cc3)cc21 (stereo partly shown),–
> 5000,> 5000,Cn1c(=O)oc2ccc(-c3ccc(C[C@@H](C#N)NC(=O)CC4CCCN4)cc3)cc21 (stereo partly shown),–
> 5000,> 5000,Cn1c(=O)oc2ccc(-c3ccc(C[C@@H](C#N)NC(=O)C4CCC(N)C4)cc3)cc21 (stereo partly shown),–
> 5000,> 5000,Cn1c(=O)oc2ccc(-c3ccc(C[C@@H](C#N)NC(=O)C4CCNCC4)cc3)cc21,–
2770,3660,Cn1c(=O)oc2ccc(-c3ccc(C[C@@H](C#N)NC(=O)C4(CN)CCC4)cc3)cc21,–
825,1270,Cn1c(=O)oc2ccc(-c3ccc(C[C@@H](C#N)NC(=O)C4CNC4)cc3)cc21,–
2760,4820,Cn1c(=O)oc2ccc(-c3ccc(C[C@@H](C#N)NC(=O)C4CNCCS(=O)(=O)C4)cc3)cc21 (stereo partly shown),–
> 5000,> 5000,Cn1c(=O)oc2ccc(-c3ccc(C[C@@H](C#N)NC(=O)C4=CS(=O)(=O)CCNC4)cc3)cc21,–
> 5000,> 5000,C=C1Oc2ccc(-c3ccc(C[C@@H](C#N)NC(=O)CC4(N)CCS(=O)(=O)C4)cc3)cc2N1C (stereo partly shown),–
> 5000,> 5000,Cn1c(=O)oc2ccc(-c3ccc(C[C@@H](C#N)NS(=O)(=O)CCN)cc3)cc21,–
> 5000,> 5000,CN1COc2ccc(-c3ccc(C[C@@H](C#N)NS(=O)(=O)CCNC4CCCC4)cc3)cc21,–
1900,1760,Cn1c(=O)oc2ccc(-c3ccc(C[C@@H](C#N)NC(=O)C4CC=CCNC4)cc3)cc21 (stereo partly shown),–
2,2.3,C=C1Oc2ccc(-c3ccc(C[C@@H](C#N)NC(=O)C4CNC[C@H](O)CO4)cc3)cc2N1C (stereo partly shown),–
2170,2030,Cn1c(=O)oc2ccc(-c3ccc(C[C@@H](C#N)NC(=O)C4CNCC(O)C4)cc3)cc21 (stereo partly shown),–

IC50 (active mouse DPP1 enzyme; [2]) [nM],"IC50 [1, 3] [nM]",Structure (SMILES),also measured
> 5000,> 5000,C=C1Oc2ccc(-c3ccc(C[C@@H](C#N)NC(=O)C4CC5NCCCC5N4)cc3)cc2N1C (stereo partly shown),–
> 5000,> 5000,Cn1c(=O)oc2ccc(-c3ccc(C[C@@H](C#N)NC(=O)CC(N)C4CC4)cc3)cc21 (stereo partly shown),–
> 5000,> 5000,Cn1c(=O)oc2ccc(-c3ccc(C[C@@H](C#N)NC(=O)C4CCNC4)cc3)cc21 (stereo partly shown),–
> 5000,> 5000,Cn1c(=O)oc2ccc(-c3ccc(C[C@@H](C#N)NC(=O)C4C=CCNC4)cc3)cc21 (stereo partly shown),–
> 5000,> 5000,Cn1c(=O)oc2ccc(-c3ccc(C[C@@H](C#N)NC(=O)[C@@H]4C[C@H]5OCC[C@H]5N4)cc3)cc21,–
583,745,CO[C@H]1CNC[C@@H](C(=O)N[C@H](C#N)Cc2ccc(-c3ccc4oc(=O)n(C)c4c3)cc2)OC1,–
–,416,[2H]C([2H])([2H])n1c(=O)oc2ccc(-c3ccc(C[C@@H](C#N)NC(=O)C4CNC4)c(F)c3)cc21,"IC50 (DPP1 in HL-60 cells; Table 16, read-out: Cell Assay): 418 nM"
–,426,[2H]C([2H])([2H])n1c(=O)oc2ccc(-c3ccc(C[C@@H](C#N)NC(=O)[C@@H]4C[C@@H]5COC[C@@H]5N4)cc3)cc21,"IC50 (DPP1 in HL-60 cells; Table 16, read-out: Cell Assay): 500 nM"
–,102,[2H]C([2H])([2H])n1c(=O)oc2ccc(-c3ccc(C[C@@H](C#N)NC(=O)[C@@H]4C[C@@H]5COC[C@@H]5N4)c(F)c3)cc21,"IC50 (DPP1 in HL-60 cells; Table 16, read-out: Cell Assay): 146 nM"
–,29.6,Cn1c(=O)oc2ccc(-c3cc(F)c(C[C@@H](C#N)NC(=O)[C@@H]4CNCCCO4)cc3F)cc21,"IC50 (DPP1 in HL-60 cells; Table 16, read-out: Cell Assay): 3.8 nM"
–,42.2,Cn1c(=O)oc2ccc(-c3cc(F)c(C[C@@H](C#N)NC(=O)[C@@H]4CNCCCO4)c(F)c3)cc21,"IC50 (DPP1 in HL-60 cells; Table 16, read-out: Cell Assay): 4.9 nM"
–,428,N#C[C@H](Cc1ccc(-c2ccc3c(c2)C(=O)NC3)cc1)NC(=O)[C@@H]1CNCCCO1,"IC50 (DPP1 in HL-60 cells; Table 16, read-out: Cell Assay): 59.9 nM"
–,–,"CC[C@@H](/C=C/C(=O)N1CCc2ccccc21)NC(=O)C1(N)CCOCC1 [GSK-2793660, reference compound]",IC50 (DPP1 in HL-60 cells; [4]): 0.34 nM
–,–,"Cn1c(=O)oc2ccc(-c3ccc(C[C@@H](C#N)NC(=O)[C@@H]4C[C@H]5C[C@H]5N4)cc3)cc21 [IWD-002, (1R,3S,5R)—N—((S)-1-cyano-2-(4-(3-methyl-2-oxo-2,3-dihydrobenzo[d]oxazol-5-yl)phenyl)ethyl)-2-azabicyclo[3.1.0]hexane-3-carboxamide]",IC50 (DPP1 in HL-60 cells; [4]): 3.7 nM
–,–,"N#Cc1ccc(-c2ccc(C[C@@H](C#N)NC(=O)[C@@H]3C[C@H]4COC[C@H]4N3)cc2)cc1 [IWD-004, (2S,3αR,6αS)—N—((S)-1-cyano-2-(4′-cyano-[1,1′-biphenyl]-4-yl)ethyl)hexahydro-1H-furo[3,4-b]pyrrole-2-carboxamide]","IC50 (active mouse DPP1 enzyme; [5]): 209 nM; IC50 (active mouse DPP1 enzyme; [6]): 209 nM; IC50 [1, 7]: 245 nM"
–,–,"Cn1c(=O)oc2ccc(-c3ccc(C[C@@H](C#N)NC(=O)[C@@H]4C[C@H]5COC[C@H]5N4)cc3)cc21 [IWD-005, (2S,3αR,6αS)—N—((S)-1-cyano-2-(4-(3-methyl-2-oxo-2,3-dihydrobenzo[d]oxazol-5-yl)phenyl)ethyl)hexahydro-1H-furo[3,4-b]pyrrole-2-carboxamide]","IC50 (active mouse DPP1 enzyme; [5]): 45.6 nM; IC50 (active mouse DPP1 enzyme; [6]): 45.6 nM; IC50 [1, 7]: 69.2 nM; IC50 ([1]; human DPP1 enzyme, H-Gly-Arg-AMC substrate 400 μM, Table 14, read-out: IC50): 69.2 nM"
19.6,30.4,Cn1c(=O)oc2ccc(-c3ccc(C[C@@H](C#N)NC(=O)[C@@H]4C[C@H]5C[C@H]5N4)cc3)cc21 [drawing 1152],–
209,269,N#Cc1ccc(-c2ccc(C[C@@H](C#N)NC(=O)[C@@H]3C[C@H]4COC[C@H]4N3)cc2)cc1 [drawing 1153],–
45.6,69.2,Cn1c(=O)oc2ccc(-c3ccc(C[C@@H](C#N)NC(=O)[C@@H]4C[C@H]5COC[C@H]5N4)cc3)cc21 [drawing 1154],–

Structure (SMILES),IC50 (active mouse DPP1 enzyme; [2]) [nM],"IC50 [1, 3] [nM]",also measured
Cn1c(=O)oc2ccc(-c3ccc(C[C@@H](C#N)NC(=O)C4CC5CCN4CC5)cc3)cc21 (stereo partly shown),> 5000,> 5000,–

# From patent publication US20260062420A1, “NOVEL DPP1 INHIBITORS AND USES THEREOF” (Insmed Incorporated, priority 2022, published 2026)
